Converted amounts (≈) assume the structure as drawn.
Experiments:
Format in all cases: cell-based
[1] = system: Staphylococcus aureus V41; assay: standard agar-dilution assay (MIC); settings: Staphylococcus aureus V41, penicillin-resistant strain, unit assumed
Experimental: (§1) The MIC's in Table II were determined by standard agar-dilution assays. The MIC's in Table III were obtained using a conventional broth-dilution microtiter test.
^b Penicillinresistant strain

[2] = system: Staphylococcus aureus X400; assay: standard agar-dilution assay (MIC); settings: Staphylococcus aureus X400, methicillin-resistant strain, unit assumed
Experimental: as §1
^c Methicillinresistant-strain

[3] = system: Haemophilus influenzae Holt; assay: standard agar-dilution assay (MIC); settings: ampicillin-sensitive strain, unit assumed
Experimental: as §1

[4] = system: Haemophilus influenzae R252; assay: standard agar-dilution assay (MIC); settings: Haemophilus influenzae R252, ampicillin-resistant strain, unit assumed
Experimental: as §1

[5] = system: Staphylococcus aureus S13E; assay: standard agar-dilution assay (MIC); settings: unit assumed
Experimental: as §1

[6] = system: Staphylococcus aureus X1.1; assay: standard agar-dilution assay (MIC); settings: unit assumed
Experimental: as §1

[7] = system: Staphylococcus epidermidis EPI1; assay: standard agar-dilution assay (MIC); settings: unit assumed
Experimental: as §1

[8] = system: Staphylococcus epidermidis EPI2; assay: standard agar-dilution assay (MIC); settings: unit assumed
Experimental: as §1

Streptococcus Group 9960 = assay: standard agar-dilution assay (MIC); settings: unit assumed
Experimental: as §1

[9] = system: Streptococcus Group D X66; assay: standard agar-dilution assay (MIC); settings: unit assumed
Experimental: as §1

[10] = system: Streptococcus pyogenes C203; assay: standard agar-dilution assay (MIC); settings: unit assumed
Experimental: as §1

[11] = system: Streptococcus pneumoniae Park I; settings: agar dilution, unit assumed
Experimental: as §1

Mycoplasma gallisepticum = assay: conventional broth-dilution microtiter test (MIC); settings: unit assumed
Experimental: as §1

Mycoplasma hyorhinis = assay: conventional broth-dilution microtiter test (MIC); settings: unit assumed
Experimental: as §1

Mycoplasma synoviae = assay: conventional broth-dilution microtiter test (MIC); settings: unit assumed
Experimental: as §1

[12] = system: Pasteurella multocida 17E; assay: conventional broth-dilution microtiter test (MIC); settings: bovine isolate, unit assumed
Experimental: as §1

[13] = system: Pasteurella multocida 60A; assay: conventional broth-dilution microtiter test (MIC); settings: avian isolate, unit assumed
Experimental: as §1

Streptococcus sp. 80 = assay: conventional broth-dilution microtiter test (MIC); settings: unit assumed
Experimental: as §1

Staphylococcus aureus = assay: conventional broth-dilution microtiter test (MIC); settings: unit assumed
Experimental: as §1

Compound | MIC [1] [µg/mL] | MIC [2] [µg/mL] | MIC [3] [µg/mL] | MIC [4] [µg/mL] | MIC [5] [µg/mL] | MIC [6] [µg/mL] | MIC [7] [µg/mL] | MIC [8] [µg/mL] | MIC (Streptococcus Group 9960) [µg/mL] | MIC [9] [µg/mL] | MIC [10] [µg/mL] | MIC [11] [µg/mL] | MIC (Mycoplasma gallisepticum) [µg/mL] | MIC (Mycoplasma hyorhinis) [µg/mL] | MIC (Mycoplasma synoviae) [µg/mL] | MIC [12] [µg/mL] | MIC [13] [µg/mL] | MIC (Streptococcus sp. 80) [µg/mL] | MIC (Staphylococcus aureus) [µg/mL]
CCC(=O)OCC1C=C(C)C=CC(=O)C(C)CC(CC=O)C(OC2OC(C)C(OC3CC(C)(O)C(O)C(C)O3)C(N(C)C)C2OC(C)=O)C(C)C(O)CC(=O)OC1CC (stereo not shown) [Compound 5, 2'-O-Acetyl-23-O-propionyl DMT] | 0.5 (≈ 0.595 µM) | 1 (≈ 1.19 µM) | 16 (≈ 19 µM) | 32 (≈ 38.1 µM) | 1 (≈ 1.19 µM) | 0.5 (≈ 0.595 µM) | 1 (≈ 1.19 µM) | 1 (≈ 1.19 µM) | 1 (≈ 1.19 µM) | 1 (≈ 1.19 µM) | 0.5 (≈ 0.595 µM) | 0.5 (≈ 0.595 µM) | ≤ 0.024 | 1.56 (≈ 1.86 µM) | 0.097 (≈ 0.115 µM) | 6.25 (≈ 7.44 µM) | 12.5 (≈ 14.9 µM) | ≤ 0.78 | –
CCC(=O)OC1C(OC2C(CC=O)CC(C)C(=O)C=CC(C)=CC(COC(C)=O)C(CC)OC(=O)CC(O)C2C)OC(C)C(OC2CC(C)(O)C(O)C(C)O2)C1N(C)C (stereo not shown) [Compound 6, 23-O-Acetyl-2'-O-propionyl-DMT] | 0.5 (≈ 0.595 µM) | 2 (≈ 2.38 µM) | 16 (≈ 19 µM) | 16 (≈ 19 µM) | 1 (≈ 1.19 µM) | 0.5 (≈ 0.595 µM) | 1 (≈ 1.19 µM) | 1 (≈ 1.19 µM) | 1 (≈ 1.19 µM) | 1 (≈ 1.19 µM) | 0.5 (≈ 0.595 µM) | 0.125 (≈ 0.149 µM) | 0.39 (≈ 0.464 µM) | 0.78 (≈ 0.929 µM) | 0.195 (≈ 0.232 µM) | 6.25 (≈ 7.44 µM) | 12.5 (≈ 14.9 µM) | 0.39 (≈ 0.464 µM) | 0.78 (≈ 0.929 µM)
CCCCCCCC(=O)OCC1C=C(C)C=CC(=O)C(C)CC(CC=O)C(OC2OC(C)C(OC3CC(C)(O)C(O)C(C)O3)C(N(C)C)C2OC(C)=O)C(C)C(O)CC(=O)OC1CC (stereo not shown) [Compound 7] | 2 (≈ 2.2 µM) | 4 (≈ 4.39 µM) | – | – | 2 (≈ 2.2 µM) | 2 (≈ 2.2 µM) | 2 (≈ 2.2 µM) | 4 (≈ 4.39 µM) | 2 (≈ 2.2 µM) | 2 (≈ 2.2 µM) | 0.5 (≈ 0.549 µM) | 0.5 (≈ 0.549 µM) | 1.56 (≈ 1.71 µM) | 6.25 (≈ 6.87 µM) | 12.5 (≈ 13.7 µM) | > 50 | > 50 | 1.56 (≈ 1.71 µM) | 1.56 (≈ 1.71 µM)
CCC1OC(=O)CC(O)C(C)C(OC2OC(C)C(OC3CC(C)(O)C(O)C(C)O3)C(N(C)C)C2OC(C)=O)C(CC=O)CC(C)C(=O)C=CC(C)=CC1COC(=O)C(C)(C)C (stereo not shown) [Compound 8] | 0.5 (≈ 0.576 µM) | 1 (≈ 1.15 µM) | 16 (≈ 18.4 µM) | 4 (≈ 4.61 µM) | 0.5 (≈ 0.576 µM) | 0.5 (≈ 0.576 µM) | 0.5 (≈ 0.576 µM) | 1 (≈ 1.15 µM) | 0.5 (≈ 0.576 µM) | 0.5 (≈ 0.576 µM) | 0.25 (≈ 0.288 µM) | 0.06 (≈ 0.0691 µM) | 0.39 (≈ 0.449 µM) | 3.12 (≈ 3.59 µM) | 0.39 (≈ 0.449 µM) | 12.5 (≈ 14.4 µM) | 12.5 (≈ 14.4 µM) | > 0.78 | 3.12 (≈ 3.59 µM)
CCC1OC(=O)CC(O)C(C)C(OC2OC(C)C(OC3CC(C)(O)C(O)C(C)O3)C(N(C)C)C2OC(C)=O)C(CC=O)CC(C)C(=O)C=CC(C)=CC1COC(=O)Cc1ccccc1 (stereo not shown) [Compound 9, 2'-O-Acetyl-23-O-phenylacetyl-DMT] | 0.5 (≈ 0.554 µM) | 0.5 (≈ 0.554 µM) | 4 (≈ 4.43 µM) | 4 (≈ 4.43 µM) | 0.5 (≈ 0.554 µM) | 0.5 (≈ 0.554 µM) | 0.5 (≈ 0.554 µM) | 0.5 (≈ 0.554 µM) | 0.25 (≈ 0.277 µM) | 0.5 (≈ 0.554 µM) | 0.125 (≈ 0.139 µM) | 0.015 (≈ 0.0166 µM) | ≤ 0.048 | 0.78 (≈ 0.865 µM) | – | 3.12 (≈ 3.46 µM) | 6.25 (≈ 6.93 µM) | ≤ 0.048 | 0.195 (≈ 0.216 µM)
CCC1OC(=O)CC(O)C(C)C(OC2OC(C)C(OC3CC(C)(O)C(O)C(C)O3)C(N(C)C)C2OC(C)=O)C(CC=O)CC(C)C(=O)C=CC(C)=CC1COC(=O)COc1ccccc1 (stereo not shown) [Compound 12, 2'-O-Acetyl-23-O-phenoxyacetyl-DMT] | 0.25 (≈ 0.272 µM) | 0.5 (≈ 0.545 µM) | 16 (≈ 17.4 µM) | 8 (≈ 8.71 µM) | 0.5 (≈ 0.545 µM) | 0.25 (≈ 0.272 µM) | 0.5 (≈ 0.545 µM) | 0.5 (≈ 0.545 µM) | 0.5 (≈ 0.545 µM) | 0.5 (≈ 0.545 µM) | 0.125 (≈ 0.136 µM) | – | 0.097 (≈ 0.106 µM) | 6.25 (≈ 6.81 µM) | 0.78 (≈ 0.85 µM) | 6.25 (≈ 6.81 µM) | 6.25 (≈ 6.81 µM) | 0.195 (≈ 0.212 µM) | 0.39 (≈ 0.425 µM)
